Data: ChEMBL document CHEMBL4219089, “Targeting RORs nuclear receptors by novel synthetic steroidal inverse agonists for autoimmune disorders” (Bioorg Med Chem, 2018)

How the values were obtained:
HepG2 [1] = assay: Cytotoxicity against human HepG2 cells assessed as effect on cell viability at 6.25 uM after 24 hrs by MTT assay; assay type: cell-based; conditions: hepg2, 24 h
HEK293 [2] = assay: Cell cycle arrest in HEK293 cells expressing GAL4-fused RORgammat at 10 to 20 uM after 24 hrs by propidium iodide staining based flow cytometric method; assay type: ADME; conditions: human, hek293, 24 h
HEK293 [3] = assay: Cytotoxicity against HEK293 cells expressing GAL4-fused RORgammat assessed as effect on cell viability at 10 to 20 uM after 24 hrs by MTT assay; assay type: cell-based; conditions: human, hek293, 24 h
HEK293 [4] = assay: Cell cycle arrest in HEK293 cells at 10 to 20 uM after 24 hrs by propidium iodide staining based flow cytometric method; conditions: human, hek293, 24 h
HepG2 [5] = assay: Cytotoxicity against human HepG2 cells assessed as effect on cell viability at 6.25 to 50 uM after 24 hrs by MTT assay; assay type: cell-based; conditions: hepg2, 24 h
HepG2 [6] = assay: Cell cycle arrest in human HepG2 cells at 10 to 20 uM after 24 hrs by propidium iodide staining based flow cytometric analysis; assay type: ADME; conditions: hepg2, 24 h
Estrogen receptor [7] = molecular target: T1, Estrogen receptor (Homo sapiens, UniProt P03372); assay: Estrogenic activity at estrogen receptor in human MCF7 cells assessed as increase in CXCL12 gene expression at 2 uM after 24 hrs by qRT-PCR analysis; assay type: ADME, cell-based; conditions: mcf7, 24 h
T1 sequence (P03372 whole entry): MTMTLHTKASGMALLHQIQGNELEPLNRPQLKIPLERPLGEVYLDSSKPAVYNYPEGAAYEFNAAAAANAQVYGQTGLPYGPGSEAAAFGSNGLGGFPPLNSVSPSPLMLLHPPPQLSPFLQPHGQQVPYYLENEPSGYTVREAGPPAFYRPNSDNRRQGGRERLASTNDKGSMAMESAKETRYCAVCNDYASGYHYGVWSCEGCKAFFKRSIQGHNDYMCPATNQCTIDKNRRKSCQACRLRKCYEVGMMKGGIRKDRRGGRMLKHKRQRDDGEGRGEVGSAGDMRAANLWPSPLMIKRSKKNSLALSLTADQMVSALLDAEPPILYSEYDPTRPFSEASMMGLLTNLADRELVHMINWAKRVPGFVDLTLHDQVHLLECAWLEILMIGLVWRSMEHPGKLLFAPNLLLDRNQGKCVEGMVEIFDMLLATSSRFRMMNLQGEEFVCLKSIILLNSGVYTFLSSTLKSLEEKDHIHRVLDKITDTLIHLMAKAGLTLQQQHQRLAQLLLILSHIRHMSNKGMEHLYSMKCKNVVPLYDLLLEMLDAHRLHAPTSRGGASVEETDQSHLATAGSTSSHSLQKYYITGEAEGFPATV

[8] = molecular target: T2, Nuclear receptor ROR-gamma (Homo sapiens, UniProt P51449); assay: (§1) Inverse agonist activity at Gal4-fused RORgammat LBD (unknown origin) expressed in HEK293 cells measured after 48 hrs post transfection by dual-luciferase reporter gene assay; assay type: cell-based
T2 sequence (P51449 whole entry): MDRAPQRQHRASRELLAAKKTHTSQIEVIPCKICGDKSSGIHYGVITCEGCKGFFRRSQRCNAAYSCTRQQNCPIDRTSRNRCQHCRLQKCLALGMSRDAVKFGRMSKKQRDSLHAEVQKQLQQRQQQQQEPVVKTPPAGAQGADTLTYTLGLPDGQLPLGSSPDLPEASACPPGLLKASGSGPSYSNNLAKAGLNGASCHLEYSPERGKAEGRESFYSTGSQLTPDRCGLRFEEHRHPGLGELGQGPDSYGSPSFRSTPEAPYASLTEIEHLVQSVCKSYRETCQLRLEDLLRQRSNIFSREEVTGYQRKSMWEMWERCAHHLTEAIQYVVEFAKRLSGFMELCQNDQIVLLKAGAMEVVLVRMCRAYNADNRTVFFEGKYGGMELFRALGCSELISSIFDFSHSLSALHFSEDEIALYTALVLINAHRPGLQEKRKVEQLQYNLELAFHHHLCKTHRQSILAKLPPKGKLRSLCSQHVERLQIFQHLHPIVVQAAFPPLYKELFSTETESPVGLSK

[9] = molecular target: T3, Nuclear receptor ROR-gamma (Homo sapiens) (UniProt P51449); assay: as §1; assay type: cell-based
T3 sequence (whole entry): T2 sequence (P51449 whole entry)

HEK293 [10] = assay: Cytotoxicity against HEK293 cells assessed as effect on cell viability at 10 to 20 uM after 24 hrs by MTT assay; assay type: cell-based; conditions: human, hek293, 24 h
Estrogen receptor [11] = molecular target: T1, Estrogen receptor; assay: Estrogenic activity at estrogen receptor in human MCF7 cells assessed as increase in GREB1 gene expression at 2 uM after 24 hrs by qRT-PCR analysis; assay type: ADME, cell-based; conditions: mcf7, 24 h
HepG2 [12] = assay: Cytotoxicity against human HepG2 cells assessed as effect on cell viability at 25 to 50 uM after 24 hrs by MTT assay; assay type: cell-based; conditions: hepg2, 24 h

| Structure (SMILES) | Activity (Estrogen receptor [7]) | IC50 [8] [µM] | Activity [9] | Activity (Estrogen receptor [11]) | Activity (HepG2 [1]) | Activity (HEK293 [2]) | Activity (HEK293 [3]) | Activity (HEK293 [4]) | Activity (HepG2 [5]) | Activity (HepG2 [6]) | Activity (HEK293 [10]) | Activity (HepG2 [12]) |
| --- | --- | --- | --- | --- | --- | --- | --- | --- | --- | --- | --- | --- |
| C[C@]12CC[C@@H]3c4cc(-c5ccc(-c6ccccc6)cc5)c(O)cc4CC[C@H]3[C@@H]1CC(C(=O)O)C2O (stereo not given in full) |  |  |  |  | Toxic |  |  |  |  |  |  |  |
| C[C@@]12C=C(C(=O)O)C[C@H]1[C@@H]1CCc3cc(O)c(C45CC6CC(CC(C6)C4)C5)cc3[C@H]1CC2 | Active | 6.5 | Dose-dependent effect | Active |  | Non-Toxic | Non-Toxic | Non-Toxic | Non-Toxic | Non-Toxic | Non-Toxic |  |
| C[C@]12CC[C@@H]3c4cc(-c5ccccc5)c(O)cc4CC[C@H]3[C@@H]1CC(C(=O)O)C2O (stereo not given in full) |  |  |  |  | Toxic |  |  |  |  |  |  |  |

Now from value to compound, other results behind:

| Activity (Estrogen receptor [7]) | IC50 [8] [µM] | Activity [9] | Activity (Estrogen receptor [11]) | Structure (SMILES) | Activity (HepG2 [1]) | Activity (HEK293 [2]) | Activity (HEK293 [3]) | Activity (HEK293 [4]) | Activity (HepG2 [5]) | Activity (HepG2 [6]) | Activity (HEK293 [10]) | Activity (HepG2 [12]) |
| --- | --- | --- | --- | --- | --- | --- | --- | --- | --- | --- | --- | --- |
| Not Active | 6.8 | Dose-dependent effect | Not Active | COc1cc2c(cc1C13CC4CC(CC(C4)C1)C3)[C@H]1CC[C@]3(C)C=C(C(=O)O)C[C@H]3[C@@H]1CC2 |  | Non-Toxic | Non-Toxic | Non-Toxic | Non-Toxic | Non-Toxic | Non-Toxic |  |
|  | 4.7 | Dose-dependent effect |  | C[C@]12CC[C@@H]3c4cc(-c5cccc6c5oc5ccccc56)c(O)cc4CC[C@H]3[C@@H]1CC(C(=O)O)C2O (stereo not given in full) |  | Non-Toxic | Non-Toxic | Non-Toxic | Non-Toxic | Non-Toxic | Non-Toxic |  |
| Not Active | 4.4 | Dose-dependent effect | Not Active | C[C@@]12C=C(C(=O)O)C[C@H]1[C@@H]1CCc3cc(O)c(C(=O)c4ccccc4)cc3[C@H]1CC2 |  | Non-Toxic | Non-Toxic | Non-Toxic |  | Non-Toxic | Non-Toxic | Toxic |
